Data as given in ChEMBL document CHEMBL2331422, “Tetracyclic diterpenoids with isomerized isospongian skeleton and labdane diterpenoids from the fruits of Amomum kravanh” (J Nat Prod, 2013).

Tests used:
[1] = tested on: RAW264.7; test: Inhibition of nitric oxide production in LPS-stimulated mouse RAW264.7 cells by Griess reagent assay; assay type: functional, cell-based
[2] = tested on: RAW264.7; test: Inhibition of nitric oxide production in LPS-stimulated mouse RAW264.7 cells at 100 uM by Griess reagent assay; assay type: functional
[3] = Antiplatelet aggregation activity in New Zealand white rabbit platelet rich plasma assessed as inhibition of ADP-induced aggregation treated for 3 mins before ADP challenge by turbidimetric method; assay type: functional; conditions: Oryctolagus cuniculus, Newzealand white
[4] = Cytotoxicity against mouse RAW264.7 cells assessed as cell survival up to 100 uM by MTT assay; assay type: cell-based; conditions: read-out: Activity

Row | Compound | IC50 [1] [µM] | inhibition at 100 µM [2] [%] | IC50 [3] [µM] | viability [4] [%]
1 | CC1(C)CCC[C@]2(C)[C@H]3CCC4=CC(=O)O[C@@H]4[C@@]3(C)C(=O)C[C@@H]12 [KRAVANHIN B] | 36.2 | < 10 | > 200 | 90
2 | C=C1CC[C@H]2[C@](C)(CO)[C@@H](O)CC[C@]2(C)[C@H]1CCC1=CC(=O)OC1 | – | < 10 | 58.9 | 90
3 | C=C1CC[C@H]2[C@](C)(CO)[C@@H](O)CC[C@]2(C)[C@H]1C/C=C1\CCOC1=O | – | < 10 | > 200 | 90
4 | CC(=O)Oc1ccccc1C(=O)O [ASPIRIN] | – | – | 58.9 | –
5 | CNC(=N)NCCC[C@H](N)C(=O)O [TILARGININE] | 40.4 | – | – | –
6 | CC1(C)[C@@H](O)CC[C@]2(C)[C@H]3CCC4=CC(=O)O[C@@H]4[C@@]3(C)C(=O)C[C@@H]12 [KRAVANHIN A] | – | < 10 | > 200 | 90
7 | CC1(C)CCC[C@]2(C)[C@H]3CC=C(CCO)C(O)[C@@]3(C)C(=O)C[C@@H]12 (some centres undefined) [KRAVANHIN D] | – | < 10 | > 200 | 90
8 | CC1(C)C(=O)CC[C@]2(C)[C@H]3CCC4=CC(=O)O[C@@H]4[C@@]3(C)C(=O)C[C@@H]12 [KRAVANHIN C] | – | < 10 | > 200 | 90
9 | C=C1CC[C@H]2C(C)(C)CCC[C@]2(C)[C@H]1C/C=C(/CO)[C@@H](O)CO | – | < 10 | > 200 | 90
